Data: PubChem BioAssay (NCI)
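Method: 48-hour compound exposure of cells in 96-well plates, five concentrations, linear interpolation of endpoints. At the GI50, growth is halved. TGI: concentration producing complete growth inhibition.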

How the values were obtained:
Assay in all cases: NCI anticancer screen, dose series, 48 h
[1] = tested on: PC-3 prostate
[2] = tested on: BT-549 breast
[3] = tested on: NCI-H460 lung
[4] = tested on: SN12C renal
[5] = tested on: HT29 colon
[6] = tested on: MCF7 breast
[7] = tested on: NCI-H522 lung
[8] = tested on: NCI-H23 lung
[9] = tested on: EKVX NSCLC
[10] = tested on: CCRF-CEM leukemia
[11] = tested on: ACHN renal
[12] = tested on: MDA-MB-468 breast
[13] = tested on: UO-31 renal
[14] = tested on: M14 melanoma
[15] = tested on: NCI-H226 lung
[16] = tested on: HL-60(TB) leukemia
[17] = tested on: TK-10 renal
[18] = tested on: U251 CNS
[19] = tested on: SW-620 colon
[20] = tested on: NCI/ADR-RES ovarian
[21] = tested on: SF-539 CNS
[22] = tested on: KM12 colon
[23] = tested on: SK-MEL-5 melanoma
[24] = tested on: UACC-257 melanoma
[25] = tested on: IGROV1 ovarian
[26] = tested on: A549 NSCLC
[27] = tested on: SNB-19 CNS
[28] = tested on: MOLT-4 leukemia
[29] = tested on: HCT-116 colon
[30] = tested on: SK-MEL-28 melanoma
[31] = tested on: K-562 leukemia
[32] = tested on: OVCAR-4 ovarian
[33] = tested on: SR leukemia
[34] = tested on: HOP-62 NSCLC
[35] = tested on: HCT-15 colon
[36] = tested on: COLO 205 colon
[37] = tested on: OVCAR-3 ovarian
[38] = tested on: HOP-92 NSCLC
[39] = tested on: OVCAR-8 ovarian
[40] = tested on: LOX IMVI melanoma
[41] = tested on: 786-0 renal
[42] = tested on: T-47D breast
[43] = tested on: DU-145 prostate
[44] = tested on: A498 renal
[45] = tested on: MDA-MB-435
[46] = tested on: CAKI-1 renal
[47] = tested on: SK-MEL-2 melanoma
[48] = tested on: RPMI-8226 leukemia
[49] = tested on: UACC-62 melanoma
[50] = tested on: SF-268 CNS
[51] = tested on: OVCAR-5 ovarian
[52] = tested on: SF-295 CNS
[53] = tested on: HS 578T breast
[54] = tested on: SK-OV-3 ovarian
[55] = tested on: MALME-3M melanoma
[56] = tested on: HCC-2998 colon
[57] = tested on: RXF 393 renal
[58] = tested on: MDA-MB-231 breast

`COc1ccc(C(=O)/C=C/c2cccc3ccccc23)cc1S(N)(=O)=O` showed a GI50 [1] of 2.31 µM, a TGI [1] of 6.64 µM and a GI50 [2] of 1.77 µM. It also gave a TGI [2] of 3.63 µM, a GI50 [3] of 1.79 µM and a TGI [3] of 4.16 µM. It also gave a GI50 [4] of 1.6 µM, a TGI [4] of 3.91 µM and a GI50 [5] of 1.74 µM. It also gave a TGI [5] of 3.92 µM, a GI50 [6] of 2.14 µM and a TGI [6] of 8.58 µM. It also gave a GI50 [7] of 1.61 µM, a TGI [7] of 3.2 µM and a GI50 [8] of 2.21 µM. For the same compound, the TGI [8] was 5.64 µM, the GI50 [9] was 3.55 µM and the TGI [9] was 13.5 µM. For the same compound, the GI50 [10] was 2.54 µM, the TGI [10] was 6.95 µM and the GI50 [11] was 1.89 µM. The TGI [11] was 3.92 µM, the GI50 [12] was 1.53 µM and the TGI [12] was 3.11 µM. The GI50 [13] was 1.48 µM, the TGI [13] was 3.19 µM and the GI50 [14] was 2.03 µM. It also gave a TGI [14] of 5.68 µM, a GI50 [15] of 3.1 µM and a TGI [15] of 13.2 µM. It also gave a GI50 [16] of 1.36 µM, a TGI [16] of 5.81 µM and a GI50 [17] of 2.89 µM. It also gave a TGI [17] of 10.2 µM, a GI50 [18] of 1.5 µM and a TGI [18] of 3.02 µM. It also gave a GI50 [19] of 1.62 µM, a TGI [19] of 3.46 µM and a GI50 [20] of 2.2 µM. It also gave a TGI [20] of 6.4 µM, a GI50 [21] of 1.64 µM and a TGI [21] of 3.06 µM. For the same compound, the GI50 [22] was 1.46 µM, the TGI [22] was 3.57 µM and the GI50 [23] was 2.53 µM. The TGI [23] was 7.71 µM, the GI50 [24] was 3.05 µM and the TGI [24] was 12.3 µM. It also gave a GI50 [25] of 2.3 µM, a TGI [25] of 7.12 µM and a GI50 [26] of 2.66 µM. For the same compound, the TGI [26] was 9.65 µM, the GI50 [27] was 3.45 µM and the TGI [27] was 13.7 µM. It also gave a GI50 [28] of 2.3 µM, a TGI [28] of 6.39 µM and a GI50 [29] of 1.33 µM. The TGI [29] was 2.93 µM, the GI50 [30] was 1.85 µM and the TGI [30] was 3.64 µM. The GI50 [31] was 1.69 µM, the TGI [31] was 7.54 µM and the GI50 [32] was 2.87 µM. The TGI [32] was 11.3 µM, the GI50 [33] was 0.749 µM and the TGI [33] was 5.13 µM. It also gave a GI50 [34] of 2.03 µM, a TGI [34] of 5.66 µM and a GI50 [35] of 1.23 µM. The TGI [35] was 3.2 µM, the GI50 [36] was 1.67 µM and the TGI [36] was 3.24 µM. For the same compound, the GI50 [37] was 1.8 µM, the TGI [37] was 4.38 µM and the GI50 [38] was 2.14 µM. For the same compound, the TGI [38] was 9.53 µM, the GI50 [39] was 2.39 µM and the TGI [39] was 10.1 µM. The GI50 [40] was 1.35 µM, the TGI [40] was 2.63 µM and the GI50 [41] was 1.86 µM. For the same compound, the TGI [41] was 3.87 µM, the GI50 [42] was 3.41 µM and the TGI [42] was 14.1 µM. It also gave a GI50 [43] of 2.85 µM, a TGI [43] of 10.8 µM and a GI50 [44] of 13.2 µM. For the same compound, the TGI [44] was 26.2 µM, the GI50 [45] was 2.23 µM and the TGI [45] was 7.5 µM. For the same compound, the GI50 [46] was 2.42 µM, the TGI [46] was 10.6 µM and the GI50 [47] was 4.99 µM. For the same compound, the TGI [47] was 17.8 µM, the GI50 [48] was 1.59 µM and the TGI [48] was 5.34 µM. It also gave a GI50 [49] of 1.53 µM, a TGI [49] of 3 µM and a GI50 [50] of 3.04 µM. It also gave a TGI [50] of 11.1 µM, a GI50 [51] of 1.84 µM and a TGI [51] of 4.4 µM. The GI50 [52] was 2.38 µM, the TGI [52] was 7.74 µM and the GI50 [53] was 5.21 µM. It also gave a TGI [53] of 26.8 µM, a GI50 [54] of 3.72 µM and a TGI [54] of 15.4 µM. The GI50 [55] was 1.83 µM, the TGI [55] was 4.2 µM and the GI50 [56] was 1.75 µM. It also gave a TGI [56] of 3.24 µM, a GI50 [57] of 1.57 µM and a TGI [57] of 3.24 µM. It also gave a GI50 [58] of 2.38 µM and a TGI [58] of 6.49 µM.
